Legend:
Assay in all cases: relative viability (nuclei count vs DMSO), 5 days (fraction); higher = more cells survive
Carfilzomib + Phenformin = compound: CC(C)C[C@H](NC(=O)[C@H](CCc1ccccc1)NC(=O)CN1CCOCC1)C(=O)N[C@@H](Cc1ccccc1)C(=O)N[C@@H](CC(C)C)C(=O)[C@@]1(C)CO1 [Carfilzomib] + N=C(N)NC(=N)NCCc1ccccc1 [Phenformin] (partner 250 µM)
Summary of the method: (§1)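 Lung cancer cell lines in 1536-well plates were dosed by pin tool the day after seeding, either with one drug alone or with a fixed anchor-drug dose plus five library-drug doses (not always all listed) in √10 steps. After 5 days, cells were fixed and their nuclei stained in one step (final 0.05% Triton X-100, 1% formaldehyde, 1 ug/ml Hoechst), then counted on 4× images. Relative viability is the nuclei count in treated wells divided by that in vehicle wells. Values are medians of duplicate plates.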

Crizotinib + Tozasertib = compound: C[C@@H](Oc1cc(-c2cnn(C3CCNCC3)c2)cnc1N)c1c(Cl)ccc(F)c1Cl [Crizotinib] + Cc1cc(Nc2cc(N3CCN(C)CC3)nc(Sc3ccc(NC(=O)C4CC4)cc3)n2)n[nH]1 [Tozasertib] (partner 0.1 µM)
Summary of the method: as §1

Olaparib + Luminespib = compound: O=C(c1cc(Cc2n[nH]c(=O)c3ccccc23)ccc1F)N1CCN(C(=O)C2CC2)CC1 [Olaparib] + CCNC(=O)c1noc(-c2cc(C(C)C)c(O)cc2O)c1-c1ccc(CN2CCOCC2)cc1 [Luminespib] (partner 0.01 µM)
Summary of the method: as §1

Olaparib + Vorinostat = compound: O=C(c1cc(Cc2n[nH]c(=O)c3ccccc23)ccc1F)N1CCN(C(=O)C2CC2)CC1 [Olaparib] + O=C(CCCCCCC(=O)Nc1ccccc1)NO [Vorinostat] (partner 1 µM)
Summary of the method: as §1

| Cell Line | relative viability (Carfilzomib + Phenformin; first compound 0.001 µM) | relative viability (Carfilzomib + Phenformin; first compound 0.003162 µM) | relative viability (Carfilzomib + Phenformin; first compound 0.01 µM) | relative viability (Carfilzomib + Phenformin; first compound 0.03162 µM) | relative viability (Carfilzomib + Phenformin; first compound 0.1 µM) | relative viability (Crizotinib + Tozasertib; first compound 0.01 µM) | relative viability (Crizotinib + Tozasertib; first compound 0.03162 µM) | relative viability (Crizotinib + Tozasertib; first compound 0.1 µM) | relative viability (Crizotinib + Tozasertib; first compound 0.3162 µM) | relative viability (Crizotinib + Tozasertib; first compound 1 µM) | relative viability (Olaparib + Luminespib; first compound 0.08 µM) | relative viability (Olaparib + Luminespib; first compound 0.253 µM) | relative viability (Olaparib + Luminespib; first compound 2.53 µM) | relative viability (Olaparib + Luminespib; first compound 8 µM) | relative viability (Olaparib + Vorinostat; first compound 0.08 µM) | relative viability (Olaparib + Vorinostat; first compound 0.253 µM) | relative viability (Olaparib + Vorinostat; first compound 2.53 µM) | relative viability (Olaparib + Vorinostat; first compound 8 µM) |
| --- | --- | --- | --- | --- | --- | --- | --- | --- | --- | --- | --- | --- | --- | --- | --- | --- | --- | --- |
| NCI-H522 | 0.697 | 0.719 | 0.668 | 0.515 | 0.401 | 0.509 | 0.492 | 0.503 | 0.596 | 0.471 | 1.23 | 1.09 | 0.781 | 0.824 | 1.04 | 0.812 | 0.797 | 0.758 |
| NCI-H596 | 0.807 | 0.812 | 0.781 | 0.433 | 0.25 | 0.887 | 0.804 | 0.924 | 0.861 |  | 0.93 | 0.883 | 0.788 | 0.638 | 0.696 | 0.529 | 0.551 | 0.397 |
| NCI-H647 | 0.485 | 0.667 | 0.237 | 0.0272 | 0.0185 | 0.267 | 0.305 | 0.248 | 0.26 | 0.204 | 0.126 | 0.186 | 0.15 | 0.121 | 0.585 | 0.504 | 0.6 | 0.271 |
| NCI-H650 |  | 0.536 | 0.451 | 0.345 | 0.148 | 0.772 | 0.726 | 0.721 | 0.616 | 0.809 | 0.924 | 0.816 | 0.577 | 0.533 | 0.431 | 0.37 | 0.377 | 0.238 |
| NCI-H661 | 0.268 | 0.272 | 0.272 | 0.248 | 0.215 | 0.336 | 0.337 | 0.337 | 0.369 | 0.355 | 1.02 | 0.869 | 0.878 | 0.619 | 0.885 | 0.715 | 0.692 | 0.551 |
| NCI-H727 | 0.559 | 0.626 | 0.573 | 0.256 | 0.182 |  | 0.605 | 0.612 |  | 0.634 | 0.446 | 0.531 | 0.461 | 0.346 | 1.19 | 1.08 | 0.983 | 0.981 |
| NCI-H838 | 0.66 | 0.865 | 0.537 | 0.122 | 0.13 | 0.243 | 0.296 | 0.246 | 0.266 | 0.269 | 0.332 | 0.218 | 0.229 | 0.219 | 0.747 | 0.646 | 0.709 | 0.65 |
| NCI-H1355 | 0.427 | 0.51 | 0.469 | 0.302 | 0.167 | 0.568 | 0.545 | 0.555 | 0.515 | 0.598 | 0.648 | 0.694 | 0.52 | 0.572 | 0.683 | 0.645 | 0.638 | 0.641 |
| NCI-H1395 | 0.448 | 0.457 | 0.441 | 0.298 | 0.314 | 0.67 | 0.734 | 0.764 | 0.738 | 0.74 | 0.633 | 0.533 | 0.62 | 0.447 | 0.775 | 0.501 | 0.516 | 0.419 |

From the supplement of paper PMC10307832
